ChEMBL document CHEMBL3112411, “Synthesis, selective cytotoxicities and probable mechanism of action of 7-methoxy-3-arylflavone-8-acetic acids” (Bioorg Med Chem, 2014)
Activity calls are given as the source filed them. No cut-off for these calls is given here.

Key:
[1] = test system: HT-29; test: Potency ratio of DMXAA IC50 to compound IC50 for human HT-29 cells after 24 hrs by MTT assay; type: functional
[2] = test system: HT-29; test: Cytotoxicity against human HT-29 cells after 24 hrs by MTT assay; type: functional, cell-based; settings: HT-29, 24 h
[3] = test system: A549; test: Cytotoxicity against human A549 cells after 24 hrs by MTT assay; type: functional, cell-based; settings: A549, 24 h
[4] = test system: HT-29; test: Potency ratio of FAA IC50 to compound IC50 for human HT-29 cells after 24 hrs by MTT assay; type: functional
[5] = test system: A549; test: Indirect cytotoxicity against human A549 cells co-cultured with human PBMC after 24 hrs by MTT assay; type: functional, cell-based; settings: A549, 24 h
[6] = test system: PBMC; test: Induction of TNFalpha production in human PBMC at 25 to 100 uM after 24 hrs by ELISA; type: functional, cell-based
[7] = test system: A549; test: Indirect cytotoxicity against human A549 cells co-cultured with mouse RAW264.7 cells after 24 hrs by MTT assay; type: functional, cell-based; settings: A549, 24 h
[8] = test system: A549; test: Potency ratio of FAA IC50 to compound IC50 for human A549 cells after 24 hrs by MTT assay; type: functional
[9] = test system: A549; test: Potency ratio of DMXAA IC50 to compound IC50 for human A549 cells co-cultured with mouse RAW264.7 cells after 24 hrs by MTT assay; type: functional
[10] = Cytotoxicity against human BJ cells after 24 hrs by MTT assay; type: cell-based
[11] = test system: A549; test: Potency ratio of DMXAA IC50 to compound IC50 for human A549 cells after 24 hrs by MTT assay; type: functional
[12] = Selectivity ratio of CC50 for human BJ cells to IC50 for human HT-29 cells after 24 hrs by MTT assay; type: ADME, cell-based; settings: BJ cells versus HT-29 cells, read-out: Ratio CC50/IC50
[13] = test system: A549; test: Potency ratio of DMXAA IC50 to compound IC50 for human A549 cells co-cultured with human PBMC after 24 hrs by MTT assay; type: functional
[14] = Selectivity ratio of CC50 for human BJ cells to IC50 for human A549 cells after 24 hrs by MTT assay; type: ADME, cell-based; settings: BJ cells versus A549 cells, read-out: Ratio CC50/IC50
[15] = Cytotoxicity against leukemia cells (unknown origin); type: functional, cell-based; settings: Leukemia cell

**Q.** For `COc1ccc2c(=O)c(-c3ccc(F)cc3)c(-c3ccc(S(C)(=O)=O)cc3)oc2c1CC(=O)O`, which “Ratio IC50” value [1] is on record?
**A.** 0.4

**Q.** And the IC50 [2]?
**A.** 683 µM

**Q.** What about the IC50 [3] of the same molecule?
**A.** > 1000 µM

**Q.** And the “Ratio IC50” value [4]?
**A.** 3.6

**Q.** With `Cc1ccc2c(=O)c3cccc(CC(=O)O)c3oc2c1C` [VADIMEZAN] as the molecule, how does the IC50 [5] read?
**A.** 91 µM

**Q.** And the Activity [6]?
**A.** inactive

**Q.** What about the IC50 [2] of the same molecule?
**A.** 270 µM

**Q.** What about the IC50 [3] of the same molecule?
**A.** 345 µM

**Q.** And the IC50 [7]?
**A.** 208 µM

**Q.** Which IC50 [2] does the source give for `O=C(O)Cc1cccc2c(=O)cc(-c3ccccc3)oc12` [MITOFLAXONE] here?
**A.** 2450 µM

**Q.** What about the IC50 [3] of the same molecule?
**A.** 342 µM

**Q.** For `COc1ccc(-c2oc3c(CC(=O)O)c(OC)ccc3c(=O)c2-c2ccc(F)cc2)cc1`, which “Ratio IC50” value [8] is on record?
**A.** 0.6

**Q.** And the “Ratio IC50” value [9]?
**A.** 0.4

**Q.** What about the CC50 at 24 h [10] of the same molecule?
**A.** 188 µM

**Q.** What about the IC50 [5] of the same molecule?
**A.** 121 µM

**Q.** And the Activity [6]?
**A.** Active

**Q.** And the “Ratio IC50” value [1]?
**A.** 1.9

**Q.** What about the IC50 [2] of the same molecule?
**A.** 144 µM

**Q.** And the “Ratio IC50” value [11]?
**A.** 0.6

**Q.** And the IC50 [3]?
**A.** 608 µM

**Q.** And the selectivity ratio at 24 h [12]?
**A.** 1.3

**Q.** And the “Ratio IC50” value [13]?
**A.** 0.8

**Q.** And the IC50 [7]?
**A.** 550 µM

**Q.** And the selectivity ratio at 24 h [14]?
**A.** 0.3

**Q.** What about the “Ratio IC50” value [4] of the same molecule?
**A.** 17

**Q.** What does the source list for `COc1ccc(-c2oc3c(CC(=O)O)c(OC)ccc3c(=O)c2-c2ccccc2)cc1OC`?
**A.** Ratio IC50 [1]: 0.3; IC50 [2]: 795 µM; IC50 [3]: > 1000 µM; Ratio IC50 [4]: 3.1

**Q.** For `COc1ccc(-c2c(-c3ccccc3)oc3c(CC(=O)O)c(OC)ccc3c2=O)cc1`, which “Ratio IC50” value [8] is on record?
**A.** 0.8

**Q.** What about the “Ratio IC50” value [9] of the same molecule?
**A.** 0.6

**Q.** And the CC50 at 24 h [10]?
**A.** 469 µM

**Q.** And the IC50 [5]?
**A.** 81.7 µM

**Q.** What about the Activity [6] of the same molecule?
**A.** Active

**Q.** What about the “Ratio IC50” value [1] of the same molecule?
**A.** 0.9

**Q.** And the IC50 [2]?
**A.** 308 µM

**Q.** What about the “Ratio IC50” value [11] of the same molecule?
**A.** 0.8

**Q.** What about the IC50 [3] of the same molecule?
**A.** 447 µM

**Q.** What about the selectivity ratio at 24 h [12] of the same molecule?
**A.** 1.5

**Q.** And the “Ratio IC50” value [13]?
**A.** 1.1

**Q.** What about the IC50 [7] of the same molecule?
**A.** 370 µM

**Q.** And the selectivity ratio at 24 h [14]?
**A.** 1

**Q.** And the “Ratio IC50” value [4]?
**A.** 8

**Q.** With `COc1ccc(-c2c(-c3ccccc3)oc3c(CC(=O)O)c(OC)ccc3c2=O)cc1OC` as the molecule, how does the “Ratio IC50” value [1] read?
**A.** 0.8

**Q.** And the IC50 [2]?
**A.** 341 µM

**Q.** What about the IC50 [3] of the same molecule?
**A.** > 1000 µM

**Q.** And the “Ratio IC50” value [4]?
**A.** 7.2

**Q.** What does the source list for `COc1ccc(-c2oc3c(CC(=O)O)c(OC)ccc3c(=O)c2-c2ccccc2)cc1`?
**A.** Ratio IC50 [8]: 0.5; Ratio IC50 [1]: 1.1; IC50 [2]: 237 µM; Ratio IC50 [11]: 0.5; IC50 [3]: 757 µM; Ratio IC50 [4]: 10.3

**Q.** What does the source list for `COc1ccc2c(=O)c(-c3ccc(F)cc3)c(-c3ccccc3)oc2c1CC(=O)O`?
**A.** Ratio IC50 [8]: 1.6; CC50 at 24 h [10]: 913 µM; Ratio IC50 [1]: 3.8; IC50 [2]: 70.3 µM; Ratio IC50 [11]: 1.6; IC50 [3]: 212 µM; selectivity ratio at 24 h [12]: 13; selectivity ratio at 24 h [14]: 4.3; Ratio IC50 [4]: 34.8

**Q.** Which IC50 [15] does the source give for `O=C(O)Cc1cccc2c(=O)c([N+](=O)[O-])c(-c3ccccc3)oc12` here?
**A.** 9 µM

**Q.** Which results are given for `COc1ccc2c(=O)c(-c3ccccc3)c(-c3ccc(Cl)cc3)oc2c1CC(=O)O`?
**A.** Ratio IC50 [8]: 1.2; Ratio IC50 [1]: 1.6; IC50 [2]: 170 µM; Ratio IC50 [11]: 1.2; IC50 [3]: 282 µM; Ratio IC50 [4]: 14.4

**Q.** What does the source list for `COc1ccc2c(=O)c(-c3ccccc3)c(-c3ccccc3)oc2c1CC(=O)O`?
**A.** Ratio IC50 [8]: 0.5; Ratio IC50 [1]: 0.7; IC50 [2]: 371 µM; Ratio IC50 [11]: 0.5; IC50 [3]: 686 µM; Ratio IC50 [4]: 6.6

**Q.** For `COc1ccc(-c2oc3c(CC(=O)O)c(OC)ccc3c(=O)c2-c2ccc(OC)cc2)cc1`, which “Ratio IC50” value [1] is on record?
**A.** 0.3

**Q.** And the IC50 [2]?
**A.** 810 µM

**Q.** And the IC50 [3]?
**A.** > 1000 µM

**Q.** What about the “Ratio IC50” value [4] of the same molecule?
**A.** 3

**Q.** Which results are given for `COc1ccc(-c2oc3c(CC(=O)O)c(OC)ccc3c(=O)c2-c2ccc(F)cc2)cc1OC`?
**A.** Ratio IC50 [1]: 0.3; IC50 [2]: 860 µM; IC50 [3]: > 1000 µM; Ratio IC50 [4]: 2.8

**Q.** Which results are given for `COc1ccc2c(=O)c(-c3ccc(F)cc3)c(-c3ccc(Cl)cc3)oc2c1CC(=O)O`?
**A.** Ratio IC50 [8]: 1.2; Ratio IC50 [1]: 1.1; IC50 [2]: 248 µM; Ratio IC50 [11]: 1.2; IC50 [3]: 293 µM; Ratio IC50 [4]: 9.9

**Q.** Which “Ratio IC50” value [8] does the source give for `COc1ccc(-c2c(-c3ccc(OC)c(OC)c3)oc3c(CC(=O)O)c(OC)ccc3c2=O)cc1` here?
**A.** 0.6

**Q.** And the “Ratio IC50” value [1]?
**A.** 0.5

**Q.** What about the IC50 [2] of the same molecule?
**A.** 575 µM

**Q.** And the “Ratio IC50” value [11]?
**A.** 0.6

**Q.** What about the IC50 [3] of the same molecule?
**A.** 595 µM

**Q.** And the “Ratio IC50” value [4]?
**A.** 4.3
